The results in this text go back to US10981879B2, “Thioether triazolopyridine and triazolopyrimidine inhibitors of myeloperoxidase” (BRISTOL-MYERS SQUIBB COMPANY, priority 2014, dated 2021).

SMILES strings stand for the structures. Some results are limits rather than exact numbers.

One may read the IC50 as the concentration at which inhibition is half-maximal.

Assay type in all cases: biochemical
Assay [1] deals with T1, myeloperoxidase (MPO) (Homo sapiens (Human), UniProt P05164). As to the kind of experiment: MPO chlorination assay (APF). In short, it runs like this: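 Human MPO (200 pM) with 120 mM NaCl preincubated with inhibitor 10 minutes at rt in 100 mM KPi pH 7.4. Reaction started with APF mixture containing 10 μM H2O2; fluorescein fluorescence (ex 485/em 535 nm) read kinetically 3 minutes. IC50 from slopes of linear kinetic portion, fitted with a four-parameter Hill equation.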

The target in assay [2] is eosinophil peroxidase (EPX) (Homo sapiens (Human), UniProt P11678). As to the kind of experiment: EPX bromination assay. How it is done:
EPX bromination activity was measured in 100 mM KPi (pH 7.4) by monitoring the H2O2 catalyzed formation of 3-bromo tyrosine from tyrosine and potassium bromide. A 50 μl mixture of 0.6 μM EPX (Lee Biosolutions Cat #342-60) was added to 100 nL inhibitor in 100% DMSO in a 384 well REMP plate. Enzyme and compound were preincubated for ten minutes at rt.
After the ten minute preincubation of enzyme and inhibitor, 25 μL of a mixture containing 400 μM tyrosine and 1200 μM potassium bromide was added to the plate containing enzyme and inhibitor, followed by the addition of 25 μl of 20 μM H2O2. The reaction was allowed to proceed for 15 minutes, at which time it was quenched with 10 μL of 20% TCA. The final concentrations of all components were 0.3 μM EPX, 100 μM tyrosine, […], 5 μM H2O2, 0.1% DMSO, 2.0% TCA.
IC50 values were determined by determining the peak areas of 3-bromotyrosine present at the end of the 15 minute reaction and fitting the data to:
[formula] where A=minimal Y value (activity level of inhibited sample), B=maximal Y value (activity level of uninhibited sample), C=Log IC50, D=Hill Slope, x=concentration of inhibitor.
Reversed-phase analysis was performed on a Waters Acquity Ultra Performance LC system using an Acquity UPLC BEH C18 […], 2.1×50 mm analytical column. The column was maintained at 60° C. Samples were eluted using a gradient of 0%-100% B over 2.5 minutes, followed by equilibration with 100% A for 1 minute where A consisted of 0.1% TFA and B consisted of 90% MeOH/0.1% TFA at a flow rate of 0.6 mL/min. The retention time of 3-bromo tyrosine was 1.22 min.

The target in assay [3] is T1, myeloperoxidase (MPO). As to the kind of experiment: MPO peroxidation assay (Amplex Red). To be noted: Table 1. How it is done:
MPO peroxidation activity was measured in 100 mM KPi (pH 7.4) by utilizing the non-fluorescent reagent Amplex Red (Invitrogen catalog #A12222) which can be oxidized to the highly fluorescent resorufin. Amplex Red is oxidized by the peroxidase action of MPO to resorufin. Reactions were carried out in 50 μL total volume by adding a 25 μL mixture of 200 pM myeloperoxidase and 40 nM H2O2 (Sigma #349887) to 100 nL inhibitor in 100% DMSO in a 384 well Perkin Elmer Optiplate. Enzyme and compound were preincubated for ten minutes at rt.
After the ten minute preincubation, 25 μL of an Amplex Red mixture containing 200 μM Amplex Red and 10 mM H2O2 was added to the plate. Kinetic determinations were carried out immediately on a Perkin Elmer Envision (15 minute kinetic read, Ex: 535 nm, Em: 590 nm).
IC50 values were calculated by determining the slope of the linear portion of the kinetic trace (180-540 secs), and using that calculated slope to determine % inhibition occurring at each concentration of inhibitor using the following equation:
[formula] where A=minimal Y value (activity level of inhibited sample), B=maximal Y value (activity level of uninhibited sample), C=Log IC50, D=Hill Slope, x=concentration of inhibitor. MPO Chlorination Assay

[4] abbreviates: MPO chlorination assay (APF), Table 1, read-out: APF IC50.
The mark [5] stands for this setting: MPO chlorination assay, ranges given, read-out: MPO chlorination assay IC50.

eosinophil peroxidase (EPX), sequence (P11678 251-715): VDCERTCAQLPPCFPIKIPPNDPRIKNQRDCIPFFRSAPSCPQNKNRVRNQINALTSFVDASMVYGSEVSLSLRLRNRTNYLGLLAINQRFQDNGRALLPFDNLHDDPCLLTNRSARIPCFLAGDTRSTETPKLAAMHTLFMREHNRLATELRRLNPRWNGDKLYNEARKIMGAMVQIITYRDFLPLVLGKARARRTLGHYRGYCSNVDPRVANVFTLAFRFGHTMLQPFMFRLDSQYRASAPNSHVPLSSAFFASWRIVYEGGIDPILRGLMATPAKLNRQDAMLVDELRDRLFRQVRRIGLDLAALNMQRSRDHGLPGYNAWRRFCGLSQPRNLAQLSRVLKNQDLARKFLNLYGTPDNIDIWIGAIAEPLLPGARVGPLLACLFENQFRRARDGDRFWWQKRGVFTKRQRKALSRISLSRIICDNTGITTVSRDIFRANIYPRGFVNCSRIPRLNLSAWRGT
eosinophil peroxidase (EPX), sequence (P11678 140-250): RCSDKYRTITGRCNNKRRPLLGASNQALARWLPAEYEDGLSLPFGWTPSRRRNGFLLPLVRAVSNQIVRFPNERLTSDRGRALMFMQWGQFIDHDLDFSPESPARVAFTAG
T1 sequence (P05164 49-745): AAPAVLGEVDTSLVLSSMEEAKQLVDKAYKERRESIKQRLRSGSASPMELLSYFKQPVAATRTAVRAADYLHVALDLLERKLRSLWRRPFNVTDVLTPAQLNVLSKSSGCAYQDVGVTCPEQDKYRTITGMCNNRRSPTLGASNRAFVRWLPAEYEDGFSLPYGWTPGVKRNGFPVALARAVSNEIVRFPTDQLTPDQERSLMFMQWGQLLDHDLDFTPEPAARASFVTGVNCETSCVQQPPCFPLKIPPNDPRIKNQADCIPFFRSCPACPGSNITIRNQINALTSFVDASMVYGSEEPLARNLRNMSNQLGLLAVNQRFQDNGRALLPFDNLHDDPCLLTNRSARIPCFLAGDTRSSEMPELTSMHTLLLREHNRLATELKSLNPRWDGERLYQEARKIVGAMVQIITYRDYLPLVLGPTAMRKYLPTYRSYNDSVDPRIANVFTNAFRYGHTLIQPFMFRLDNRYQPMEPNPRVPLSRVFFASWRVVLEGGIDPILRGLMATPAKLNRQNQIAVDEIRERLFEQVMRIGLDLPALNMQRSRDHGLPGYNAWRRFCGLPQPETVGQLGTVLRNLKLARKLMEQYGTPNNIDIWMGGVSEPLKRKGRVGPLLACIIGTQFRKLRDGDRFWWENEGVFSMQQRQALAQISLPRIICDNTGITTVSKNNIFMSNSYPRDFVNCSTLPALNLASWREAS

Turning to `CC(Sc1cc(N)nc2[nH]nnc12)c1ccccc1` (stereo not drawn) [Example 2, 7-((1-phenylethyl)thio)-3H-[1,2,3]triazolo[4,5-b]pyridin-5-amine], the half-maximal inhibitory concentration (IC50) in assay [1] (setting [4]) came to 10 nM; in assay [2] it was 1 nM; in assay [3] it was 10 nM.
Turning to `Nc1cc(SCc2ccc(OC(F)(F)F)cc2)c2nn[nH]c2n1` [Example 7, 7-((4-(trifluoromethoxy)benzyl)thio)-3H-[1,2,3] triazolo[4,5-b]pyridin-5-amine], the IC50 in assay [1] (setting [5]) was at most 60 nM; in assay [2], 20 nM.
On the same counts, the results for `Nc1cc(SCc2c(Cl)cccc2Cl)c2nn[nH]c2n1` [Example 11, 7-((2,6-Dichlorobenzyl)thio)-3H-[1,2,3]triazolo[4,5-b]pyridin-5-amine] are at most 60 nM and 2 nM.
On the same counts, the results for `Cn1ncc2c(CSc3cc(N)nc4[nH]nnc34)cccc21` [Example 51, 7-(((1-methyl-1H-indazol-4-yl)methyl)thio)-3H-[1,2,3] triazolo[4,5-b]pyridin-5-amine] are 60 to 200 nM and 6 nM.
Take `CS(=O)(=O)c1ccc(CSc2cc(N)nc3[nH]nnc23)c(Cl)c1` [Example 104, 7-((2-chloro-4-(methylsulfonyl)benzyl)thio)-3H-[1,2,3]triazolo[4,5-b]pyridin-5-amine]: the IC50 in assay [1] (setting [4]) turned out to be 90 nM; in assay [3] it was 10 nM.
On the same counts, the results for `Nc1cc(SCc2cn(-c3ccccc3)nc2C(F)(F)F)c2nn[nH]c2n1` [Example 113, 7-(((1-phenyl-3-(trifluoromethyl)-1H-pyrazol-4-yl)methyl)thio)-3H-[1,2,3]triazolo[4,5-b] pyridin-5-amine] are 10 nM and 20 nM.
In the same order, the values of `Nc1cc(SCc2cnn(C3CCCCC3)c2C(F)(F)F)c2nn[nH]c2n1` [Example 116, 7-(((1-cyclohexyl-5-(trifluoromethyl)-1H-pyrazol-4-yl)methyl)thio)-3H-[1,2,3]triazolo[4,5-b] pyridin-5-amine] are 530 nM and 100 nM.
In the same order, the values of `Nc1cc(SC(CO)c2ccccc2)c2nn[nH]c2n1` (stereo not drawn) [Example 126, 2-((5-Amino-3H-[1,2,3]triazolo[4,5-b]pyridin-7-yl)thio)-2-phenylethanol] are 80 nM and 20 nM.
As to `Nc1cc(SCc2cn(-c3ccc(N4CCCC4)nc3)nc2C(F)(F)F)c2nn[nH]c2n1` [Example 139], the IC50 in assay [1] (setting [4]) is 10 nM; in assay [3], 170 nM.
Consider `Nc1cc(SCc2cn(-c3cccnn3)nc2C(F)F)c2nn[nH]c2n1` [Example 144], for which the IC50 in assay [1] (setting [4]) was 80 nM; in assay [3] it was 40 nM.
On the same counts, the results for `Nc1cc(SCc2cn(-c3cnccn3)nc2C(F)F)c2nn[nH]c2n1` [Example 145] are 80 nM and 30 nM.
Turning to `CCn1ncc(CSc2nc(N)nc3[nH]nnc23)c1C(F)(F)F` [Example 164, 7-(((1-ethyl-5-(trifluoromethyl)-1H-pyrazol-4-yl)methyl)thio)-3H-[1,2,3]triazolo[4,5-d] pyrimidin-5-amine], the IC50 was found to be 770 nM in assay [1] (setting [4]) and 220 nM in assay [3].
In the same order, the values of `Nc1nc(SCc2ccccc2CN2CCCC2)c2nn[nH]c2n1` [Example 166, 7-((2-(pyrrolidin-1-ylmethyl)benzyl)thio)-3H-[1,2,3]triazolo[4,5-d] pyrimidin-5-amine] are 570 nM and 790 nM.
